Laboratory results as given in patent publication US20140011799A1 (Bristol-Myers Squibb Company, priority 2012, published 2014).

What was measured:
hepatic lipase (HL) = biological target: T1, hepatic lipase (HL) (Homo sapiens, UniProt P11150); experiment: Hepatic lipase (HL) enzymatic assay, fluorescent substrate A10070 in DMPG vesicles; type: biochemical; conditions: HL partially purified from conditioned media of COS cells; compound preincubated 30 min at 37° C; read-out: HL IC50
T1 construct: made in house; host or cells: COS cells (conditioned medium, partially purified)
T1 sequence (P11150 23-499): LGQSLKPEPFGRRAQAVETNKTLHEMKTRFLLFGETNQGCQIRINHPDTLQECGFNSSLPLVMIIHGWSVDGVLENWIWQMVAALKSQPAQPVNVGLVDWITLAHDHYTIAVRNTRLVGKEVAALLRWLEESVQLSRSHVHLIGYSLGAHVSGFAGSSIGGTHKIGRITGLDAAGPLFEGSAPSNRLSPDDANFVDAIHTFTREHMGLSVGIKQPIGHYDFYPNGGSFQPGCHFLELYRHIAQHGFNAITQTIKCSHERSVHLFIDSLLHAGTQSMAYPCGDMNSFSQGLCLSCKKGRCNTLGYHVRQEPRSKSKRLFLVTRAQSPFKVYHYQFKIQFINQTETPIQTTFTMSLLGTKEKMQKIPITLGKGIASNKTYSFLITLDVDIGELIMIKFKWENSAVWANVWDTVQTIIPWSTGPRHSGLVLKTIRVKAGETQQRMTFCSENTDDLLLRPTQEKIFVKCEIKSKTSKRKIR
In short: (§1)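 EL from conditioned medium of HT-1080 cells engineered to overexpress endogenous EL; HL partially purified from conditioned medium of HL-overexpressing COS cells. Enzyme preincubated with compound 30 min at 37° C in 50 mM HEPES pH 8.0, 50 mM NaCl, 1 mM CaCl2; DMPG vesicles carrying FRET substrate (0.11 mole fraction) then added.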

Endothelial lipase (EL) = biological target: T2, Endothelial lipase (EL) (Homo sapiens, UniProt Q9Y5X9); experiment: Endothelial lipase (EL) enzymatic assay, fluorescent substrate A10070 in DMPG vesicles; type: biochemical; conditions: EL from conditioned media of HT-1080 cells; compound preincubated 30 min at 37° C; read-out: EL IC50
T2 construct: HT-1080 cells that were transformed using RAGE technology (Athersys) to overexpress endogenous EL; endogenous in cells; conditioned medium used
T2 sequence (Q9Y5X9 21-500): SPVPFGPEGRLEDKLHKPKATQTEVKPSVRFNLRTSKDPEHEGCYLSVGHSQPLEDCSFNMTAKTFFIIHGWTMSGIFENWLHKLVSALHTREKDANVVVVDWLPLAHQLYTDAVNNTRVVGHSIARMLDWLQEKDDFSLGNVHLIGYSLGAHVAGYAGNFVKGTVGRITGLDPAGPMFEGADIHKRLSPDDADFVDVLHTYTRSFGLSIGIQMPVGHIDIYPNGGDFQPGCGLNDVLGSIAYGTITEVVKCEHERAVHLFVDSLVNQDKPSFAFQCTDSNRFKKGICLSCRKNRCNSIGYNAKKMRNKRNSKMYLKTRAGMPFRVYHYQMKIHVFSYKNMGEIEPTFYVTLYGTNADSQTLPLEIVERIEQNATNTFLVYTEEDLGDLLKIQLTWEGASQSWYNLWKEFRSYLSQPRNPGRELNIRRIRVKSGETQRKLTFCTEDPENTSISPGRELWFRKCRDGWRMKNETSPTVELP
In short: as §1

| IC50 (hepatic lipase (HL)) | IC50 (Endothelial lipase (EL)) | SMILES |
| --- | --- | --- |
| 54 nM | 1 nM | CC1(Cc2nnc(C(c3nc4ccc(-c5cccc(C(=O)N6CC[C@@H](F)C6)c5)cc4s3)S(C)(=O)=O)o2)NC(=O)NC1=O (stereo partly drawn) [Example 232, 5-({5-[(6-{3-[(3R)-3-fluoropyrrolidine-1-carbonyl]phenyl}-1,3-benzothiazol-2-yl) (methanesulfonyl)methyl]-1,3,4-oxadiazol-2-yl}methyl)-5-methyl-imidazolidine-2,4-dione] |
| 18 nM | 1 nM | CS(=O)(=O)C(c1nnc(CNS(N)(=O)=O)o1)c1nc2cc(-c3ccc(F)nc3)ccc2s1 (stereo not drawn) [Example 233, N-[(5-{[5-(6-fluoropyridin-3-yl)-1,3-benzothiazol-2-yl] (methanesulfonyl)methyl}-1,3,4-oxadiazol-2-yl)methyl]aminosulfonamide] |
| 17 nM | 4 nM | COCc1ccc(-c2ccc3nc(C(c4nnc(CNS(N)(=O)=O)o4)S(=O)(=O)Cc4cc(C(F)(F)F)cc(C(F)(F)F)c4)sc3c2)cc1 (stereo not drawn) [Example 234, N-[(5-{[3,5-bis(trifluoromethyl)phenyl]methanesulfonyl({6-[4-(methoxymethyl)phenyl]-1,3-benzothiazol-2-yl})methyl}-1,3,4-oxadiazol-2-yl)methyl]aminosulfonamide] |
| 6 nM | 4 nM | COCc1ccc(-c2ccc3nc(C(c4nnc(CNS(N)(=O)=O)o4)S(=O)(=O)Cc4cc(Cl)cc(Cl)c4)sc3c2)cc1 (stereo not drawn) [Example 235, N-({5-[(3,5-dichlorophenyl)methanesulfonyl({6-[4-(methoxymethyl)phenyl]-1,3-benzothiazol-2-yl})methyl]-1,3,4-oxadiazol-2-yl}methyl)aminosulfonamide] |
| 1 nM | 1 nM | COCc1ccc(-c2ccc3nc(C(c4nnc(CNS(N)(=O)=O)o4)S(=O)(=O)Cc4ccc(C(F)(F)F)cc4)sc3c2)cc1 (stereo not drawn) [Example 236, N-{[5-({6-[4-(methoxymethyl)phenyl]-1,3-benzothiazol-2-yl}[4-(trifluoromethyl)phenyl]meth-anesulfonylmethyl)-1,3,4-oxadiazol-2-yl]methyl} aminosulfonamide] |
| 2 nM | 1 nM | COCc1ccc(-c2ccc3nc(C(c4nnc(CNS(N)(=O)=O)o4)S(=O)(=O)Cc4ccc(OC(F)(F)F)cc4)sc3c2)cc1 (stereo not drawn) [Example 237, N-{[5-({6-[4-(methoxymethyl)phenyl]-1,3-benzothiazol-2-yl}[4-(trifluoromethoxy)phenyl]methanesulfonylmethyl)-1,3,4-oxadiazol-2-yl]methyl} aminosulfonamide] |
| 18 nM | 4 nM | NS(=O)(=O)NCc1nnc(C(c2nc3ccc(-c4ccc(F)nc4)cc3s2)S(=O)(=O)Cc2ccc(C(F)(F)F)cc2)o1 (stereo not drawn) [Example 238, N-[(5-{[6-(6-fluoropyridin-3-yl)-1,3-benzothiazol-2-yl] [4-(trifluoromethyl)phenyl]methanesulfonylmethyl}-1,3,4-oxadiazol-2-yl)methyl]aminosulfonamide] |
| 9 nM | 4 nM | NS(=O)(=O)NCc1nnc(C(c2nc3ccc(-c4ccc(F)nc4)cc3s2)S(=O)(=O)Cc2ccc(OC(F)(F)F)cc2)o1 (stereo not drawn) [Example 239, N-[(5-{[6-(6-fluoropyridin-3-yl)-1,3-benzothiazol-2-yl] [4-(trifluoromethoxy)phenyl]methanesulfonylmethyl}-1,3,4-oxadiazol-2-yl)methyl] aminosulfonamide] |
| 3 nM | 2 nM | COCc1ccc(-c2ccc3nc(C(c4nnc(CNS(N)(=O)=O)o4)S(=O)(=O)Cc4ccccc4F)sc3c2)cc1 (stereo not drawn) [Example 240, N-({5-[(2-fluorophenyl)methanesulfonyl ({6-[4-(methoxymethyl)phenyl]-1,3-benzothiazol-2-yl})methyl]-1,3,4-oxadiazol-2-yl}methyl) aminosulfonamide] |
